Measured values taken from patent publication US20230159509A1 (Amathus Therapeutics, Inc., priority 2020, published 2023).

Biological target: T1, TRAP1 enzyme (Homo sapiens, UniProt Q12931)
T1 construct: 150 nM Trap1 enzyme was incubated with various concentrations of the test compound
T1 sequence (Q12931 60-704): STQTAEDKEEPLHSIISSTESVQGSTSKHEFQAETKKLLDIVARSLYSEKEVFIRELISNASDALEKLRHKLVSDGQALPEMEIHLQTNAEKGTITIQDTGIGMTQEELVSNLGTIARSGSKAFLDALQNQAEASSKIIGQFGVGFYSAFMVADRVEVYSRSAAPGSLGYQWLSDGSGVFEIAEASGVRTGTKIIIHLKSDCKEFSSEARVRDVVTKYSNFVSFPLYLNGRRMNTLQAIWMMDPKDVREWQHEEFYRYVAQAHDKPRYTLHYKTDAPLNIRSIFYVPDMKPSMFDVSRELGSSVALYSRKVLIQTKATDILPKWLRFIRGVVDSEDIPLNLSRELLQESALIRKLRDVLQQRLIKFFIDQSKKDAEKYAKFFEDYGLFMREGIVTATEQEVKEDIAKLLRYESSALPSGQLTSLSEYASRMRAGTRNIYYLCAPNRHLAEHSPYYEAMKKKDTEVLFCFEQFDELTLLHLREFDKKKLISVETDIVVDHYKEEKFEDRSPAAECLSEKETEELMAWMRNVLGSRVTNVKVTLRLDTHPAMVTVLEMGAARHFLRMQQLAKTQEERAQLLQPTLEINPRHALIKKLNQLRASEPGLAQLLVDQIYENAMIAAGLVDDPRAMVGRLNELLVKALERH
Experiment: ADP Glo assay of TRAP1 ATPase activity
Assay type: biochemical
Conditions: for EC50: concentration for half maximal activation, read-out: ADP GLO DRC: GeoMean EC50; for Emax: maximal percent activation, read-out: ADP GLO DRC: Mean Emax; for activation at 50 µM: 1 h, compound concentration 50 μM, read-out: ADP-Glo Percent Activation at 50 μM
Summary of the method: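 Compound (0.79–100 μM) was preincubated 30 min at 37° C with 150 nM TRAP1 in 25 mM Pipes pH 7.5, 40 mM KCl, 0.05 mM MgCl2. Reaction started with 20 μM ATP, 60 min at 37° C. ADP measured by luminescence against a standard curve; activation fitted sigmoidally for EC50 and Emax.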

Structure (SMILES)	EC50 [µM]	Emax [%]	activation at 50 µM [%]
COc1ncc(NC(=O)c2ncc(-c3ccccc3)o2)cc1S(=O)(=O)Nc1c(C#N)cccc1C(F)(F)F [compound 1358, N-(5-(N-(2-cyano-6-(trifluoromethyl)phenyl)sulfamoyl)-6-methoxypyridin-3-yl)-5-phenyloxazole-2-carboxamide]	20 to 100	200 to 300	–
COc1ncc(NC(=O)c2ccc(N3CCOCC3)c(F)c2)cc1S(=O)(=O)Nc1c(C)cccc1C [compound 2655]	–	–	181 to 352
COc1ncc(NC(=O)c2csc(-c3ccccc3)n2)cc1S(=O)(=O)Nc1c(C)nn(C)c1C [compound 1417, N-(6-methoxy-5-(N-(1,3,5-trimethyl-1H-pyrazol-4-yl)sulfamoyl)pyridin-3-yl)-2-phenylthiazole-4-carboxamide]	20 to 100	200 to 300	–
CCCc1onc(C)c1C(=O)Nc1cnc(OC)c(S(=O)(=O)Nc2c(C)cccc2C)c1 [compound 2726]	–	–	181 to 352
COc1ncc(NC(=O)c2ccc(N3CCN(C)CC3)cc2)cc1S(=O)(=O)Nc1c(C)cccc1C [compound 2578]	–	–	181 to 352
COc1ncc(NC(=O)c2ccn3cnnc3c2)cc1S(=O)(=O)Nc1c(C)cccc1C [compound 2526]	–	–	120 to 150
COc1ncc(NC(=O)c2csc(C(F)(F)F)c2)cc1S(=O)(=O)Nc1c(C)cccc1C [compound 2683]	–	–	120 to 150
COc1ncc(NC(=O)c2coc(N3CCOCC3)n2)cc1S(=O)(=O)Nc1c(C)cccc1C [compound 2674]	–	–	151 to 180
COc1ncc(NC(=O)c2cccc(CO)c2)cc1S(=O)(=O)Nc1c(C)cccc1C [compound 2767]	–	–	181 to 352
COc1ncc(NC(=O)c2csc(-c3cc(F)c(F)c(F)c3)n2)cc1S(=O)(=O)Nc1cc(C)n(C(C)C)n1 [compound 2407]	10 to 20	119 to 159	–
COc1ncc(NC(=O)c2ccc(N3CCCC3=O)cc2)cc1S(=O)(=O)Nc1c(C)cccc1C [compound 2532]	–	–	151 to 180
COc1ncc(NC(=O)c2ccc(NC(=O)C3CC3)cc2)cc1S(=O)(=O)Nc1c(C)cccc1C [compound 2671]	–	–	120 to 150
COc1ncc(NC(=O)c2ccc(N3CCOCC3)cn2)cc1S(=O)(=O)Nc1c(C)cccc1C [compound 2653]	–	–	151 to 180
COc1ncc(NC(=O)c2csc(-c3ccccc3)n2)cc1S(=O)(=O)Nc1nc(C(C)(C)C)ns1 [compound 1839]	10 to 20	200 to 300	–
COc1ncc(NC(=O)c2cnn(C(F)(F)F)c2)cc1S(=O)(=O)Nc1c(C)cccc1C [compound 2637]	–	–	120 to 150
COc1ncc(NC(=O)c2ccccc2CN2CCOCC2)cc1S(=O)(=O)Nc1c(C)cccc1C [compound 2634]	–	–	181 to 352
COc1ncc(NC(=O)c2ccnc(N(C)C)n2)cc1S(=O)(=O)Nc1c(C)cccc1C [compound 2641]	–	–	181 to 352
COc1ncc(NC(=O)c2csc3c2C2CCN3CC2)cc1S(=O)(=O)Nc1c(C)cccc1C [compound 1946, N-(5-(N-(2,6-dimethylphenyl)sulfamoyl)-6-methoxypyridin-3-yl)-5,6-dihydro-4H-4,7-ethanothieno[2,3-b]pyridine-3-carboxamide]	< 10	160 to 199	–
COc1ncc(NC(=O)c2ncc(-c3ccccc3)o2)cc1S(=O)(=O)Nc1cccc(C(F)(F)F)n1 [compound 2119]	20 to 100	200 to 300	–
COc1cccc(C)c1NS(=O)(=O)c1cc(NC(=O)c2coc(-c3ccccc3)n2)cnc1OC [compound 1484, N-(6-methoxy-5-(N-(2-methoxy-6-methylphenyl)sulfamoyl)pyridin-3-yl)-2-phenyloxazole-4-carboxamide]	< 10	160 to 199	–
COc1ncc(NC(=O)c2csc(-c3ccccc3)n2)cc1S(=O)(=O)Nc1nnn(Cc2ccccc2)n1 [compound 1912]	20 to 100	200 to 300	–
COc1ncc(NC(=O)c2cccc(C(=O)N(C)C)c2)cc1S(=O)(=O)Nc1c(C)cccc1C [compound 2613]	–	–	151 to 180
COc1ncc(NC(=O)c2ncc(-c3ccccc3)o2)cc1S(=O)(=O)Nc1cccc(C#N)n1 [compound 2148]	20 to 100	160 to 199	–
COc1cc(NS(=O)(=O)c2cc(NC(=O)c3csc(-c4ccccc4)n3)cnc2OC)ccn1 [compound 1878]	20 to 100	119 to 159	–
COc1ncc(NC(=O)c2csc(-c3ccccc3)n2)cc1S(=O)(=O)Nc1c(C2CC2)cccc1C1CC1 [compound 2499]	< 10	160 to 199	–
COc1cc(C(=O)Nc2cnc(OC)c(S(=O)(=O)Nc3c(C)cccc3C)c2)ccn1 [compound 2575]	–	–	151 to 180
COc1ncc(NC(=O)c2cccc3ncn(C)c23)cc1S(=O)(=O)Nc1c(C)cccc1C [compound 1394, N-(5-(N-(2,6-dimethylphenyl)sulfamoyl)-6-methoxypyridin-3-yl)-1-methyl-1H-benzo[d]imidazole-7-carboxamide]	20 to 100	160 to 199	–

The next lines start with the values.

EC50 [µM]	Emax [%]	activation at 50 µM [%]	Structure (SMILES)
–	–	151 to 180	COc1ncc(NC(=O)c2cc(C)nn2C(F)F)cc1S(=O)(=O)Nc1c(C)cccc1C [compound 2646]
–	–	181 to 352	COc1ncc(NC(=O)c2cccn2C)cc1S(=O)(=O)Nc1c(C)cccc1C [compound 2539]
–	–	120 to 150	COc1ncc(NC(=O)c2cnccc2N(C)C)cc1S(=O)(=O)Nc1c(C)cccc1C [compound 2789]
–	–	120 to 150	COc1ncc(NC(=O)c2nc(C)oc2C)cc1S(=O)(=O)Nc1c(C)cccc1C [compound 2692]
–	–	181 to 352	COc1ncc(NC(=O)c2nn(C)cc2C)cc1S(=O)(=O)Nc1c(C)cccc1C [compound 2643]
10 to 20	160 to 199	–	COc1ncc(NC(=O)c2csc(C(F)(F)F)n2)cc1S(=O)(=O)Nc1c(C)cccc1C [compound 2498]
–	–	120 to 150	COc1ncc(NC(=O)c2csnn2)cc1S(=O)(=O)Nc1c(C)cccc1C [compound 2777]
–	–	151 to 180	COc1ncc(NC(=O)c2ncoc2C)cc1S(=O)(=O)Nc1c(C)cccc1C [compound 2718]
–	–	120 to 150	CCn1cc(C(=O)Nc2cnc(OC)c(S(=O)(=O)Nc3c(C)cccc3C)c2)cn1 [compound 2750]
–	–	151 to 180	COc1ncc(NC(=O)c2cc(C)[nH]n2)cc1S(=O)(=O)Nc1c(C)cccc1C [compound 2749]
–	–	120 to 150	COc1ncc(NC(=O)c2cncs2)cc1S(=O)(=O)Nc1c(C)cccc1C [compound 2658]
–	–	120 to 150	COc1ncc(NC(=O)c2cc(C)nn2C)cc1S(=O)(=O)Nc1c(C)cccc1C [compound 2607]
< 10	160 to 199	–	COc1ncc(NC(=O)c2nn(C)c3ccccc23)cc1S(=O)(=O)Nc1c(C)cccc1C [compound 1423, N-(5-(N-(2,6-dimethylphenyl)sulfamoyl)-6-methoxypyridin-3-yl)-1-methyl-1H-indazole-3-carboxamide]
10 to 20	119 to 159	–	COc1ncc(NC(=O)c2csc(Br)n2)cc1S(=O)(=O)Nc1c(C)cccc1C [compound 2502]
–	–	120 to 150	COc1cccnc1C(=O)Nc1cnc(OC)c(S(=O)(=O)Nc2c(C)cccc2C)c1 [compound 2549]
